Data as given in the supplement of paper PMC10307832.

Columns and labels:
Assay in all cases: relative viability (nuclei count vs DMSO), 5 days (fraction); higher = more cells survive
[1] = compound: C1=CC=C2C(=C1)C=CC(=C2SSC3=C(C=CC4=CC=CC=C43)O)O [IPA-3] + O=C(c1cc(Cc2n[nH]c(=O)c3ccccc23)ccc1F)N1CCN(C(=O)C2CC2)CC1 [Olaparib] (partner 8 µM)
How it was run: (§1)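 Relative viability is defined as nuclei in treated wells over nuclei in vehicle wells. Duplicate plates were run and medians reported. Lung cancer cell lines in 1536-well plates were dosed by pin tool one day after seeding, with one drug or with a fixed anchor-drug dose plus five library-drug doses (not always all listed) in √10 steps, and nuclei were counted after 5 days.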

[2] = compound: Cc1ccc(-n2nc(C(C)(C)C)cc2NC(=O)Nc2ccc(OCCN3CCOCC3)c3ccccc23)cc1 [Doramapimod] + N=C(N)NC(=N)NCCc1ccccc1 [Phenformin] (partner 250 µM)
How it was run: as §1

[3] = compound: Cc1ccc(-n2nc(C(C)(C)C)cc2NC(=O)Nc2ccc(OCCN3CCOCC3)c3ccccc23)cc1 [Doramapimod] + Nc1nc2[nH]cc(CCc3ccc(C(=O)N[C@@H](CCC(=O)O)C(=O)O)cc3)c2c(=O)[nH]1 [Pemetrexed] (partner 0.2 µM)
How it was run: as §1

[4] = compound: Cc1ccc(-n2nc(C(C)(C)C)cc2NC(=O)Nc2ccc(OCCN3CCOCC3)c3ccccc23)cc1 [Doramapimod] + O=C(c1cc(Cc2n[nH]c(=O)c3ccccc23)ccc1F)N1CCN(C(=O)C2CC2)CC1 [Olaparib] (partner 8 µM)
How it was run: as §1

Row | Cell Line | relative viability ([1]; first compound 0.2 µM) | relative viability ([1]; first compound 0.6325 µM) | relative viability ([1]; first compound 2 µM) | relative viability ([1]; first compound 6.325 µM) | relative viability ([1]; first compound 20 µM) | relative viability ([2]; first compound 0.02 µM) | relative viability ([2]; first compound 0.06325 µM) | relative viability ([2]; first compound 0.2 µM) | relative viability ([2]; first compound 0.6325 µM) | relative viability ([2]; first compound 2 µM) | relative viability ([3]; first compound 0.02 µM) | relative viability ([3]; first compound 0.06325 µM) | relative viability ([3]; first compound 0.2 µM) | relative viability ([3]; first compound 0.6325 µM) | relative viability ([3]; first compound 2 µM) | relative viability ([4]; first compound 0.02 µM) | relative viability ([4]; first compound 0.06325 µM) | relative viability ([4]; first compound 0.2 µM) | relative viability ([4]; first compound 0.6325 µM) | relative viability ([4]; first compound 2 µM)
1 | NCI-H661 | 0.784 | 0.705 | 0.786 | 0.716 | 0.738 | 0.297 | 0.272 | 0.274 | 0.289 | 0.308 | 1.05 | 0.861 | 0.923 | 0.96 | 0.901 | 0.797 | 0.756 | 0.785 | 0.717 | 0.75
2 | NCI-H2342 | 0.468 | 0.4 | 0.559 | 0.46 | 0.473 | 0.617 | 0.594 | 0.593 | 0.704 | 0.497 | 0.733 | 0.759 | 0.789 | 0.788 | 0.784 | 0.496 | 0.475 | 0.472 | 0.473 | 0.431
3 | EMC-BAC-2 | 0.5 | 0.468 | 0.447 | 0.459 | 0.412 | 0.53 | 0.606 | 0.586 | 0.678 | 0.503 | 0.455 | 0.426 | 0.418 | 0.46 | 0.369 | 0.494 | 0.441 | 0.469 | 0.473 | 0.43
4 | NCI-H1355 | 0.764 | 0.779 | 0.836 | 0.675 | 0.709 | 0.423 | 0.467 | 0.454 | 0.421 | 0.415 | 1.06 | 1.04 | 0.999 | 1.05 | 0.894 | 0.76 | 0.732 | 0.708 | 0.721 | 0.7
5 | NCI-H23 | 0.196 | 0.277 | 0.379 | 0.323 | 0.187 | 0.786 | 0.781 | 0.788 | 0.828 | 0.656 | 0.607 | 0.749 | 0.679 | 0.703 | 0.533 | 0.397 | 0.352 | 0.417 | 0.335 | 0.311
6 | NCI-H1651 | 0.198 | 0.187 | 0.189 | 0.179 | 0.178 | 0.323 | 0.317 | 0.348 | 0.415 | 0.45 | 0.576 | 0.731 | 0.594 | 0.658 | 0.595 | 0.203 | 0.19 | 0.17 | 0.204 | 0.194
7 | NCI-H1975 | 1.03 | 0.761 | 0.815 | 0.705 | 0.495 | 0.41 | 0.382 | 0.411 | 0.415 | 0.397 | 0.305 | 0.276 | 0.304 | 0.293 | 0.282 | 0.717 | 0.85 | 0.864 | 0.768 | 0.82
8 | COR-L23 | 0.314 | 0.34 | 0.406 | 0.281 | 0.301 | 0.436 | 0.467 | 0.398 | 0.422 | 0.391 | 0.222 | 0.203 | 0.212 | 0.19 | 0.2 | 0.368 | 0.351 | 0.368 | 0.315 | 0.379
9 | HCC-44 | 0.961 | 0.983 | 1.03 | 1.02 | 1.02 | 0.267 | 0.247 | 0.22 |  | 0.241 | 0.673 | 0.649 | 0.712 | 0.605 | 0.614 | 0.995 | 0.976 | 0.993 | 0.979 | 0.977
10 | LOU-NH91 | 0.953 | 0.911 | 0.965 | 0.896 | 1.03 | 0.76 | 0.671 | 0.735 | 0.774 | 0.417 | 0.388 | 0.396 | 0.355 | 0.379 | 0.395 | 0.987 | 0.929 | 0.902 | 1 | 0.737
11 | NCI-H441 | 0.759 | 0.507 | 0.48 | 0.409 | 0.432 | 0.895 | 0.808 | 0.828 |  | 0.729 | 0.252 | 0.244 | 0.251 | 0.268 | 0.268 | 0.45 | 0.501 | 0.45 | 0.609 | 0.356
12 | NCI-H647 | 0.725 | 0.496 | 0.59 | 0.196 | 0.0974 | 0.436 | 0.593 | 0.614 | 0.543 | 0.494 | 0.195 | 0.138 | 0.15 | 0.168 | 0.152 | 0.475 | 0.488 | 0.509 | 0.443 | 0.444
13 | NCI-H1915 | 0.28 | 0.237 | 0.269 | 0.246 | 0.255 | 0.362 | 0.357 | 0.375 | 0.348 | 0.298 | 0.452 | 0.464 | 0.498 | 0.699 | 0.419 | 0.285 | 0.287 | 0.252 | 0.254 | 0.233
14 | NCI-H1734 | 0.701 | 0.586 | 0.577 | 0.587 | 0.513 | 0.332 | 0.344 | 0.344 | 0.355 | 0.289 | 0.416 | 0.431 | 0.419 | 0.382 | 0.39 | 0.572 | 0.595 | 0.587 | 0.573 | 0.497
15 | NCI-H1993 | 1.22 | 1.08 | 0.995 | 1.23 | 1.08 | 0.512 | 0.484 | 0.543 | 0.542 | 0.548 | 0.627 | 0.517 | 0.504 | 0.658 | 0.558 | 0.983 | 0.908 | 1.14 | 1.07 | 0.794
16 | LK-2 | 0.831 | 0.615 | 0.788 | 0.988 | 0.938 | 0.278 | 0.332 | 0.382 | 0.282 | 0.246 | 0.283 | 0.286 | 0.283 | 0.198 | 0.157 | 0.656 | 0.778 | 0.656 | 0.493 | 0.397
